Laboratory results from PubChem BioAssay (NCI).
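1) Cells in 96-well plates. 2) Compound, 48 h, 5 concentrations. 3) Linear interpolation between surrounding doses. 4) Unreached endpoint = highest concentration. GI50 is the concentration that inhibits growth by half. TGI: total growth inhibition.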

system: MDA-MB-468 breast; assay: NCI-60 cell line screen, 48 h

| Compound | GI50 | TGI |
| --- | --- | --- |
| CNC(=O)c1c(C)oc2cc(Oc3ncnc4cc(OC)c(OC)cc34)ccc12 | > 100 µM | > 100 µM |
| Cc1onc(-c2ccccc2)c1C(=O)N/N=C/c1cc(Cl)cc(Cl)c1O | 3.89 µM | 42.9 µM |
| C=C(c1ccc(OC)c(/C=C/C(=O)c2ccc3c(c2)OCO3)c1)c1cc(OC)c(OC)c(OC)c1 | 1.65 µM | 8.92 µM |
| COc1ccc(Cn2cc3c(c2-c2cc(OC)c(OC)c(OC)c2)CCCc2cnoc2-3)cc1 | 0.563 µM | > 100 µM |
| O=c1oc2ccc(I)cc2c(=O)n1-c1ccc(Br)cc1F | 1.45 µM | 4.88 µM |
| CN[C@H]1CN(c2ccc3c(=O)c(C(=O)O)cn(-c4nccs4)c3n2)C[C@@H]1OC | 0.822 µM | 2.86 µM |
| CCCCCCCCCCCCCCCC1=NCC[N+]1(CCO)CCO | 2.13 µM | 7.03 µM |
| O=C(CSc1nc2c(n1Nc1ccccc1)-c1ccccc1SC2)Nc1nc(-c2ccc(Cl)cc2)cs1 | 18 µM | > 100 µM |
| Cc1cccc2sc(/N=C(\N)C(Br)Br)nc12 | 1.63 µM | 4.58 µM |
| Cc1cc2nc(NCCN)n(Cc3ccc(F)c(Cl)c3)c2cc1C | 3.61 µM | 15.8 µM |
| COc1ccccc1Nc1cc(O)c2c(=O)cc(-c3ccccc3)oc2c1 | 1.5 µM | 6.42 µM |
| CC(C)(C)C(=O)OCOP(=O)(NCc1ccccc1)C1CCCN(O)C1=O (configuration not stated) | 1.43 µM | 5.07 µM |
| NS(=O)(=O)OC[C@H]1C[C@@H](Nc2ccnc3cc(-c4cccc(SC(F)(F)F)c4)nn23)[C@H](O)[C@@H]1O | < 0.01 µM | < 0.0127 µM |
| Cc1cc2c(C(=O)NC[C@H](C)c3ccccc3)c(O)c(O)cc2c(O)c1-c1c(C)cc2c(C(=O)NC[C@H](C)c3ccccc3)c(O)c(O)cc2c1O | 0.596 µM | 3.38 µM |
| COc1ccc(/C=C\c2cc(OC)c(OC)c(OC)c2)cc1OCC(=O)Nc1nc2ccc(F)cc2s1 | 3.68 µM | > 100 µM |
| CC(C)C[C@H](NC(=O)CNC(=O)c1cc(Cl)ccc1Cl)B(O)O | < 0.0137 µM | 0.0217 µM |

| Compound | GI50 | TGI |
| --- | --- | --- |
| COc1cc(C(=O)NC2CCc3cc(OC)c(OC)c(OC)c3-c3ccc(OC)c(=O)cc32)cc(OC)c1OC (configuration not stated) | 0.0853 µM | > 100 µM |
| Fc1ccc(-c2c(-c3ccncc3)nc3n2CCS3)cc1 | > 10.4 µM | > 25 µM |
| O=C1N[C@@H]2[C@@H](O)[C@@H](O)[C@H](O)C[C@H]2c2cc3c(c(O)c21)OCCO3 | 0.0955 µM | 0.455 µM |
| COc1ccc(C(=O)C(CN(C)C)CN(C)C)cc1 | 1.47 µM | 4.31 µM |
| Clc1c(Cl)[n+](Cc2ccc3ccccc3c2)cn1Cc1ccc2ccccc2c1 | 0.668 µM | 2.28 µM |
| O=C1NC(=C(Cl)Cl)/C(=N/S(=O)(=O)N2CCCCC2)N1 | 2.39 µM | 13.3 µM |
| C[C@@H](Oc1cc(-n2cnc3ccc(OC4CCN(C)CC4)cc32)sc1C(N)=O)c1ccccc1Cl | 0.00441 µM | 0.202 µM |
| CC(=O)O[C@@H]1C2CCC3C(CC[C@@]4(C)C3CC[C@@H]4C(C)N(C)C)[C@@]2(C)CC[C@@H]1NC(=O)C=C(C)C (some centres not stated) | 1.4 µM | 3.06 µM |
| O=C1Nc2c(ccc(Cl)c2Cl)/C1=C/c1cc(Br)c(O)c(Br)c1 | 2.96 µM | > 26.3 µM |
| CCc1ccc(Oc2c(-c3ccc(OCc4ccc(Cl)cc4)cc3O)n[nH]c2C(F)(F)F)cc1 | 1.73 µM | 3.96 µM |
| CNC(=O)c1ccc(N2C(=S)N(c3cnc(C#N)c(C(F)(F)F)c3)C(=O)C23CCC3)cc1F | 49.6 µM | > 100 µM |
| COc1ccc(C2(Cl)c3ccccc3N(c3ccccc3)c3ccccc32)cc1 | 0.391 µM | 2.1 µM |
| COc1cc2c(cc1OC(C)C)[C@H](c1ccc(Cl)cc1)N(c1ccc(N(C)CC3CCC(N4CCN(C)C(=O)C4)CC3)cc1)C(=O)C2 (some centres not stated) | 3.37 µM | 8.93 µM |
| COc1ccc2ncn(-c3cc(O[C@H](C)c4ccccc4C(F)(F)F)c(C(N)=O)s3)c2c1 | 0.067 µM | 1 µM |
| OC(CNc1ccnc2cc(Cl)ccc12)CNc1ccnc2cc(Cl)ccc12 | 1.43 µM | 2.93 µM |
